Experimental data: article PMC10382584, “Macrocyclization of linear molecules by deep learning to facilitate macrocyclic drug candidates discovery” (Nature Communications, 2023)

Key:
Assay in all cases: biochemical
Set-up in all cases: DiscoveRx KINOMEscan competition binding, percent of DMSO control signal at 100 nM
Conditions in all cases: read-out: Fig. 4a / Percent Control / Compound 1; percent of DMSO control, competition binding
LZK = molecular target: T1, LZK (Homo sapiens, UniProt O43283)
T1 construct: gene MAP3K13

PDGFRB = PDGFRB (Homo sapiens, UniProt P09619)
Sequence of PDGFRB (P09619 whole entry): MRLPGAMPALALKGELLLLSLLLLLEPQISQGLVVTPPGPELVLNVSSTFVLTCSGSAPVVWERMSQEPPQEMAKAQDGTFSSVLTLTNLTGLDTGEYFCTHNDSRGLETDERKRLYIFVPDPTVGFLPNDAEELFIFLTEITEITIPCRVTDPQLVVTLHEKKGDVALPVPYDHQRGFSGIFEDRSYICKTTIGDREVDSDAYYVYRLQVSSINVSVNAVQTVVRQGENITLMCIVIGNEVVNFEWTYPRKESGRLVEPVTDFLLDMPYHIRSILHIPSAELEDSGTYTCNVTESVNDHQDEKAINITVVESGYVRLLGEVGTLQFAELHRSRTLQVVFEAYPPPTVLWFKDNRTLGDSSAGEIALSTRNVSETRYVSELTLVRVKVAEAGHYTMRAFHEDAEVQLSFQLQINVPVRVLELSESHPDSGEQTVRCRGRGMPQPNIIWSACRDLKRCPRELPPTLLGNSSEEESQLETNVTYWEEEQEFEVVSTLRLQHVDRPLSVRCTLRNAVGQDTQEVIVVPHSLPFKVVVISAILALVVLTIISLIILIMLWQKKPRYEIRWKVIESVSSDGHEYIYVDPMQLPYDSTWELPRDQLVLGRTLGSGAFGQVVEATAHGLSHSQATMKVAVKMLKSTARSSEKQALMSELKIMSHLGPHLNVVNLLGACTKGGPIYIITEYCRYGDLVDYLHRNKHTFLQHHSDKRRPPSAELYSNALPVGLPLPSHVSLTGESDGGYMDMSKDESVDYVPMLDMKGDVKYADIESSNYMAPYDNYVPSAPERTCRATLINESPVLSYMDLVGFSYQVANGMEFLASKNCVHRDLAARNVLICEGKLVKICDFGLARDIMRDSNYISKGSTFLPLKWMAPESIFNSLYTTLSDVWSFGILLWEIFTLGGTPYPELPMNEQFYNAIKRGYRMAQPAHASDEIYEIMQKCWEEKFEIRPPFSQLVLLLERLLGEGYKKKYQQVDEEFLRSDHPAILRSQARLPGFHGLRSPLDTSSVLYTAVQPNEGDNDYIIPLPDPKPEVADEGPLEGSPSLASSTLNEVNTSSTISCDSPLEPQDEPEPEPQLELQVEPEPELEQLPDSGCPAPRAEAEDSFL

CSK = CSK (Homo sapiens, UniProt P41240)
Sequence of CSK (P41240 whole entry): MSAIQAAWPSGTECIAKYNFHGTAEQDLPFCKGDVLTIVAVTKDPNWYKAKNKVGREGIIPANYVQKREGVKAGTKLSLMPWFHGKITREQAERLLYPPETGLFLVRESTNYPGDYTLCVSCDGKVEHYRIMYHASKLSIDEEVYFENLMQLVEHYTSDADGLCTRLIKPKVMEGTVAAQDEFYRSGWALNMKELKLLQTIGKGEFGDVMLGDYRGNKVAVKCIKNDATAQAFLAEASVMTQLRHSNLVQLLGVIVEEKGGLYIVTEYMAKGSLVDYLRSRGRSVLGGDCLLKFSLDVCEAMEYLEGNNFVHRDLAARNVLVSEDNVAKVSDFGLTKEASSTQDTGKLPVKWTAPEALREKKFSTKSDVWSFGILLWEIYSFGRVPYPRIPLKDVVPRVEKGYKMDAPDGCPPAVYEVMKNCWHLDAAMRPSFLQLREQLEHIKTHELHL

RET(V804L) = RET(V804L) (Homo sapiens, UniProt P07949, V804L)
CLK3 = CLK3 (Homo sapiens, UniProt P49761)
Sequence of CLK3 (P49761 whole entry): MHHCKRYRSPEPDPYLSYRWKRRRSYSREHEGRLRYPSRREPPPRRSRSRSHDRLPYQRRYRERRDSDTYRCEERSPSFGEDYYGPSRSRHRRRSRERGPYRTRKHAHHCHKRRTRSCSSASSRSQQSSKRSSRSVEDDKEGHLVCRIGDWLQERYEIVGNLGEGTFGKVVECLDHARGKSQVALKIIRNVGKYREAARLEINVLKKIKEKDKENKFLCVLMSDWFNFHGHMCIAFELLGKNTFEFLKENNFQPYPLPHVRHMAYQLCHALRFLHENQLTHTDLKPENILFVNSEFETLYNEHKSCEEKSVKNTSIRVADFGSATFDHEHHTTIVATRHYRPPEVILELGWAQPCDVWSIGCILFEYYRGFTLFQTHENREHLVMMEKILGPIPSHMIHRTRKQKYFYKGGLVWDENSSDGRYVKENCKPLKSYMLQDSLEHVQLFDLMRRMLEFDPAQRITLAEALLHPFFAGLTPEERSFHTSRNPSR

[1] = molecular target: T2, RPS6KA5(Kin.Dom.1-N-terminal) (Homo sapiens, UniProt O75582)
T2 construct: Kin.Dom.1-N-terminal

FGFR4 = FGFR4 (Homo sapiens, UniProt P22455)
AURKB = AURKB (Homo sapiens, UniProt Q96GD4)
Sequence of AURKB (Q96GD4 whole entry): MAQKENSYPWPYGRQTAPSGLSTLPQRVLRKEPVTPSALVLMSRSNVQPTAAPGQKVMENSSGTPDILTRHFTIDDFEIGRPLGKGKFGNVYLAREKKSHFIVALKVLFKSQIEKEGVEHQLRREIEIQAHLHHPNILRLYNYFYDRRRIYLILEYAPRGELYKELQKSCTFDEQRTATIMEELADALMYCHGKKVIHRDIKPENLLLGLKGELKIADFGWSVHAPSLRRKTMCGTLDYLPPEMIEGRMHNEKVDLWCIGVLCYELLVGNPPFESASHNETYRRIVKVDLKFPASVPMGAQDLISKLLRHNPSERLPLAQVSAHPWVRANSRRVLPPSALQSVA

FLT3(ITD,D835V) = FLT3(ITD,D835V) (Homo sapiens, UniProt P36888, D835V/ITD)
DDR1 = DDR1 (Homo sapiens, UniProt Q08345)
Sequence of DDR1 (Q08345 whole entry): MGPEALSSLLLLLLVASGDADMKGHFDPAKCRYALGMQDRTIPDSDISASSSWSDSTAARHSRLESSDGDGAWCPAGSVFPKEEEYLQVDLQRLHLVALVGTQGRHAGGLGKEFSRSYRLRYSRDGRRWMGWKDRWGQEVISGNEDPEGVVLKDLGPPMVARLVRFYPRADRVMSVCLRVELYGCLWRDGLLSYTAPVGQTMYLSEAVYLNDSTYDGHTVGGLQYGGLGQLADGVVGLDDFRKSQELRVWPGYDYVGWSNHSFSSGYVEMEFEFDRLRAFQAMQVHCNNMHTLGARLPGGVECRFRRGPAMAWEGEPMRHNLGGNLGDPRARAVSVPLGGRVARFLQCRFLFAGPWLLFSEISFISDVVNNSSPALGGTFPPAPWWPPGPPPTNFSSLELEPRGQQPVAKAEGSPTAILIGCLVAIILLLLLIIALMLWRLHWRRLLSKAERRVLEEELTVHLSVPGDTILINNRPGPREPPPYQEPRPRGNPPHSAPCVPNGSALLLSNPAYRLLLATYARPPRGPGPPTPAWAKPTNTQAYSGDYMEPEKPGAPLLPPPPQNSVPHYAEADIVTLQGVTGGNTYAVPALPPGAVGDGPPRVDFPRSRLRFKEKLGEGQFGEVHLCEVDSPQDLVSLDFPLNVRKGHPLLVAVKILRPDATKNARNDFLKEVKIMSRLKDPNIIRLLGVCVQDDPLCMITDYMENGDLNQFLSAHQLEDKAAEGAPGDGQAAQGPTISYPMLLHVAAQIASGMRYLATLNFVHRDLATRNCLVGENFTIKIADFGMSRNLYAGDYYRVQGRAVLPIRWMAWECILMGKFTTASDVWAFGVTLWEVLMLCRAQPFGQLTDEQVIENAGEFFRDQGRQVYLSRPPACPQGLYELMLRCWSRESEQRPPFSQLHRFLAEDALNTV

PIK3CA(H1047Y) = PIK3CA(H1047Y) (Homo sapiens, UniProt P42336, H1047Y)
KIT-autoinhibited = KIT-autoinhibited (Homo sapiens, UniProt P10721)
Sequence of KIT-autoinhibited (P10721 whole entry): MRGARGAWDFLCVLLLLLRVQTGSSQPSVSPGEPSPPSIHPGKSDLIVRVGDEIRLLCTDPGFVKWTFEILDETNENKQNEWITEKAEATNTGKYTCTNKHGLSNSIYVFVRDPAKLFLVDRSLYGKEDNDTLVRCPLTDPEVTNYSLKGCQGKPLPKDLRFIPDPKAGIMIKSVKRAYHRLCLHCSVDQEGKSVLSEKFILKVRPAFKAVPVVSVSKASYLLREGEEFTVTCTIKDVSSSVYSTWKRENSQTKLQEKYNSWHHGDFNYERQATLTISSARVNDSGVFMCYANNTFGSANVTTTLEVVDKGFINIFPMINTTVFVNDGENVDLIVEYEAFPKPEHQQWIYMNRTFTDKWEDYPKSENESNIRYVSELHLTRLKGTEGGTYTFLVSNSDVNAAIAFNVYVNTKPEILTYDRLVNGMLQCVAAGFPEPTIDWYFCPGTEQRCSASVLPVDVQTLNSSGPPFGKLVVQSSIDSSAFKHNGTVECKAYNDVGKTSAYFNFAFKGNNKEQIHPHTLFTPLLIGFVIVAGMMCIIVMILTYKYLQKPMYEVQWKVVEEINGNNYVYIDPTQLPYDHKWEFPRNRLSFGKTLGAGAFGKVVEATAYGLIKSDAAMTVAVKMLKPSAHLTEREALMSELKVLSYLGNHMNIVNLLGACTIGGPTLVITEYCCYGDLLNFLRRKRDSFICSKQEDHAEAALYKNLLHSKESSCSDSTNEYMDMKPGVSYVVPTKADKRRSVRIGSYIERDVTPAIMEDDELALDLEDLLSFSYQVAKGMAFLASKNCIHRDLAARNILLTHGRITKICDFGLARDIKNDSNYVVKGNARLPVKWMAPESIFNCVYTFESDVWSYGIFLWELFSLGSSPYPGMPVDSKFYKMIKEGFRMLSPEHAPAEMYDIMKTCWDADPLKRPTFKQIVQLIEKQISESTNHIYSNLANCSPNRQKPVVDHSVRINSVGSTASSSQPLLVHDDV

PRKCI = PRKCI (Homo sapiens, UniProt P41743)
GRK3 = GRK3 (Homo sapiens, UniProt P35626)
EPHB4 = EPHB4 (Homo sapiens, UniProt P54760)
PAK4 = PAK4 (Homo sapiens, UniProt O96013)
SGK2 = SGK2 (Homo sapiens, UniProt Q9HBY8)
TRKB = molecular target: T3, TRKB (Homo sapiens, UniProt Q16620)
T3 construct: gene NTRK2

MST1R = MST1R (Homo sapiens, UniProt Q04912)
SRPK2 = SRPK2 (Homo sapiens, UniProt P78362)
Sequence of SRPK2 (P78362 whole entry): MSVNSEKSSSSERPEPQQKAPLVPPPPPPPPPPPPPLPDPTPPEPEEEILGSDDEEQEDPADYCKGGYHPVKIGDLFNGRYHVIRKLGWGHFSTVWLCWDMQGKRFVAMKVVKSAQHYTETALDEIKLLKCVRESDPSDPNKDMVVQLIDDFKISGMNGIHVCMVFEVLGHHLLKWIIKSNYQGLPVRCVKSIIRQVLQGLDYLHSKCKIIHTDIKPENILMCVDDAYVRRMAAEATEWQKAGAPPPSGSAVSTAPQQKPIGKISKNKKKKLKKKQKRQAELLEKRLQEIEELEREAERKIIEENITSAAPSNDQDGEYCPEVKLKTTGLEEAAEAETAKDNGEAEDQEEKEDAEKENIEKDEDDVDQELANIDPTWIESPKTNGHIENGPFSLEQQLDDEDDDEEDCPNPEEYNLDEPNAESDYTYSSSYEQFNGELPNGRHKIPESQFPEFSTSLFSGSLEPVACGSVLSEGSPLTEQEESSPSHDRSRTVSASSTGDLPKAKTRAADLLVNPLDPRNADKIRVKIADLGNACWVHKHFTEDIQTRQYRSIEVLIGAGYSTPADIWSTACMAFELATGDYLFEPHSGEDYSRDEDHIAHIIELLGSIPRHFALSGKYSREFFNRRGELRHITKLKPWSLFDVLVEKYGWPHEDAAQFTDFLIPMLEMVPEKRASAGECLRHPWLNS

PIP5K1A = PIP5K1A (Homo sapiens, UniProt Q99755)
IKK-alpha = molecular target: T4, IKK-alpha (Homo sapiens, UniProt O15111)
T4 construct: gene CHUK

LATS2 = LATS2 (Homo sapiens, UniProt Q9NRM7)
CSF1R = CSF1R (Homo sapiens, UniProt P07333)
AURKC = AURKC (Homo sapiens, UniProt Q9UQB9)
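Note: KINOMEscan kinase panel binding assay, signal normalized between DMSO as 100% and a positive control compound as 0%.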

## Cc1cnc2nc1Nc1cccc(c1)COCc1cc(ccc1OCCN1CCCC1)N2 [Compound 1]
LZK
  remaining binding at 0.1 µM: 63%
PDGFRB
  remaining binding at 0.1 µM: 51%
CSK
  remaining binding at 0.1 µM: 100%
RET(V804L)
  remaining binding at 0.1 µM: 88%
CLK3
  remaining binding at 0.1 µM: 100%
[1]
  remaining binding at 0.1 µM: 83%
FGFR4
  remaining binding at 0.1 µM: 97%
AURKB
  remaining binding at 0.1 µM: 82%
FLT3(ITD,D835V)
  remaining binding at 0.1 µM: 2.1%
DDR1
  remaining binding at 0.1 µM: 93%
PIK3CA(H1047Y)
  remaining binding at 0.1 µM: 91%
KIT-autoinhibited
  remaining binding at 0.1 µM: 86%
PRKCI
  remaining binding at 0.1 µM: 80%
GRK3
  remaining binding at 0.1 µM: 72%
EPHB4
  remaining binding at 0.1 µM: 100%
PAK4
  remaining binding at 0.1 µM: 100%
SGK2
  remaining binding at 0.1 µM: 97%
TRKB
  remaining binding at 0.1 µM: 40%
MST1R
  remaining binding at 0.1 µM: 100%
SRPK2
  remaining binding at 0.1 µM: 100%
PIP5K1A
  remaining binding at 0.1 µM: 49%
IKK-alpha
  remaining binding at 0.1 µM: 96%
LATS2
  remaining binding at 0.1 µM: 100%
CSF1R
  remaining binding at 0.1 µM: 62%
AURKC
  remaining binding at 0.1 µM: 100%
